Here are results for 26 compounds from US11590116B2 (THERAVANCE BIOPHARMA R&D IP, LLC, priority 2019, dated 2023).

The target in test [1] is T1, recombinant human ALK5 (TGF-βR1) protein (Homo sapiens, UniProt P36897).
T1 construct: purchased Life Technologies PR9075A
T1 sequence (P36897 34-503): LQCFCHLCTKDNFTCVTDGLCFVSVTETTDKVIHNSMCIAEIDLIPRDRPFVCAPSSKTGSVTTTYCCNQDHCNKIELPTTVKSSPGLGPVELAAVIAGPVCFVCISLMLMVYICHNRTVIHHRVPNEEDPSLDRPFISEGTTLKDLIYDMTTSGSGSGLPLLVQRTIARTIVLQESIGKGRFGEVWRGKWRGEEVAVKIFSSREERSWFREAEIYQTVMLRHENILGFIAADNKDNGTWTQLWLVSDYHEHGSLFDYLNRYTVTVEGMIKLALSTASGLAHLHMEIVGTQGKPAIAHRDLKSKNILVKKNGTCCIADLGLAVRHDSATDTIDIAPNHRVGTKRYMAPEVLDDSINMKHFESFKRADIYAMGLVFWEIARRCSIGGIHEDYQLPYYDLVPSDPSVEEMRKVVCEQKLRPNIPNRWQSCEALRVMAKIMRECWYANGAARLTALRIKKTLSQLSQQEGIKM
Description: Biochemical ALK5 (TGF-βR1) assay to measure pKi (LANCE Ultra ULight kinase assay). To be noted: apparent pKi from pIC50 by Cheng-Prusoff, read-out: ALK5 pKi (converted). The essentials: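 Compounds (10 μM to 25 pM) were preincubated 60 min at room temperature with enzyme, then reactions were started with ATP (125 μM stock, 5× final) and run 60 min at 37 °C. EDTA-containing Eu-anti-phospho-Topo IIα (Thr1342) antibody stopped the reaction; TR-FRET read at 665 nm. pIC50 from 4-parameter fit, converted to pKi via Cheng-Prusoff.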
In general terms: In TR-FRET formats the signal depends on donor and acceptor labels being close together.

For test [2], the system named is TGF-β-stimulated SMAD3 phosphorylation in BEAS-2B cells. As to the kind of experiment: Cellular ALK5 potency assay, inhibition of TGF-β stimulated pSMAD3 formation in BEAS-2B cells. In kind it is cell-based. To be noted: Homo sapiens; inhibition of TGF-β stimulated pSMAD3 formation, BEAS-2B cells; read-out: BEAS2B pIC50 (converted). An outline of the steps: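 BEAS-2B human lung epithelial cells pre-treated 1 h at 37° C with compound in HBSS/25 mM HEPES/1% BSA, then stimulated 30 min with 10 ng/mL TGF-β (final). Lysates assayed for pSMAD3 by AlphaLISA; pIC50 from dose-dependent change versus stimulated untreated cells.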

SMILES strings stand for the structures.

Consider `Cc1cccc(-c2[nH]cnc2-c2ccc3ncc(C4=CCN(C(C)C)C4)cc3c2)n1` [Compound 319, 3-(1-isopropyl-2,5-dihydropyrrol-3-yl)-6-[5-(6-methyl-2-pyridyl)-1H-imidazol-4-yl]quinoline], for which the Ki in test [1] was less than 0.0316 nM. The IC50 in test [2] is 25.1 to 158 nM.

Take `Cc1cccc(-c2n[nH]cc2-c2ccc3nccc(NC(=O)CCN4CCN(C(C)C)CC4)c3n2)n1` [Compound 843, 3-(4-isopropylpiperazin-1-yl)-N-[6-[3-(6-methyl-2-pyridyl)-1H-pyrazol-4-yl]-1,5-naphthyridin-4-yl]propanamide]: the Ki in test [1] was 0.398 to 3.16 nM. The IC50 in test [2] was 25.1 to 158 nM.

For the compound `Cc1cccc(-c2nc3ccccn3c2-c2ccc3ncc(-c4cnn(CCN)c4)cc3n2)n1` [Compound 660, 2-[4-[6-[2-(6-methyl-2-pyridyl)imidazo[1,2-a]pyridin-3-yl]-1,5-naphthyridin-3-yl]pyrazol-1-yl]ethanamine], the Ki in test [1] is 0.0398 to 0.316 nM. Also, the IC50 in test [2] is 25.1 to 158 nM.

On to `Cc1cccc(-c2[nH]cnc2-c2ccc3ncc(-c4ccccn4)cc3c2)n1` [Compound 367, 6-[5-(6-methyl-2-pyridyl)-1H-imidazol-4-yl]-3-(2-pyridyl)quinoline], for which the Ki in test [1] was 0.0398 to 0.316 nM. Moreover, the IC50 in test [2] was 25.1 to 158 nM.

Turning to `Cc1cccc(-c2[nH]ncc2-c2ccc3ncc(C(=O)OC4CCNCC4)cc3n2)n1` [Compound 485, 4-piperidyl 6-[5-(6-methyl-2-pyridyl)-1H-pyrazol-4-yl]-1,5-naphthyridine-3-carboxylate], in test [1], the Ki was 0.0398 to 0.316 nM. Moreover, in test [2], the IC50 is 25.1 to 158 nM.

As for `COc1[nH]nc(-c2cccc(C)n2)c1-c1ccc2ncc(NCCN3CCOCC3)cc2n1` [Compound 87, 6-[5-methoxy-3-(6-methyl-2-pyridyl)-1H-pyrazol-4-yl]-N-(2-morpholinoethyl)-1,5-naphthyridin-3-amine], the Ki in test [1] is 0.398 to 3.16 nM. In test [2], the IC50 is 200 to 1260 nM.

Regarding `CNCC1CN(c2cnc3ccc(-c4c[nH]nc4-c4cccc(C)n4)nc3c2)C1` [Compound 672, N-methyl-1-[1-[6-[3-(6-methyl-2-pyridyl)-1H-pyrazol-4-yl]-1,5-naphthyridin-3-yl]azetidin-3-yl]methanamine], the Ki in test [1] is 0.0398 to 0.316 nM. Besides, the IC50 in test [2] was 25.1 to 158 nM.

`Cc1nc(-c2n[nH]cc2-c2ccc3ncc(N4CCC(N)C4)cc3n2)ccc1F` (stereo not shown) [Compound 334, 1-[6-[3-(5-fluoro-6-methyl-2-pyridyl)-1H-pyrazol-4-yl]-1,5-naphthyridin-3-yl]pyrrolidin-3-amine]: in test [1], the Ki was 0.0398 to 0.316 nM. The IC50 in test [2] is 25.1 to 158 nM.

In the case of `Cc1nc(-c2n[nH]cc2-c2ccc3ncc(-c4ncn5c4CNCC5)cc3n2)ccc1F` [Compound 107, 2-[3-(5-fluoro-6-methyl-2-pyridyl)-1H-pyrazol-4-yl]-7-(5,6,7,8-tetrahydroimidazo[1,5-a]pyrazin-1-yl)-1,5-naphthyridine], the Ki in test [1] is 0.0398 to 0.316 nM. Further, the IC50 in test [2] was 25.1 to 158 nM.

As to `COC(=O)c1ccnc2ccc(-c3c(OC)n[nH]c3-c3cccc(C)n3)nc12` [Compound 864, methyl 6-[3-methoxy-5-(6-methyl-2-pyridyl)-1H-pyrazol-4-yl]-1,5-naphthyridine-4-carboxylate], the Ki in test [1] was 0.398 to 3.16 nM. In addition, the IC50 in test [2] was 200 to 1260 nM.

`CNCCn1ccc(-c2cnc3ccc(-c4c[nH]nc4-c4cccc(C(C)C)n4)nc3c2)n1` [Compound 276, 2-[3-[6-[3-(6-isopropyl-2-pyridyl)-1H-pyrazol-4-yl]-1,5-naphthyridin-3-yl]pyrazol-1-yl]-N-methyl-ethanamine]: the Ki in test [1] is less than 0.0316 nM. Moreover, the IC50 in test [2] was 25.1 to 158 nM.

Take `Cc1cccc(-c2[nH]cnc2-c2ccc3ncc(-c4cccc(C(=O)O[C@@H]5CCNC5)n4)cc3c2)n1` [Compound 1126, [(3R)-pyrrolidin-3-yl] 6-[6-[5-(6-methyl-2-pyridyl)-1H-imidazol-4-yl]-3-quinolyl]pyridine-2-carboxylate]: the Ki in test [1] is less than 0.0316 nM. Moreover, the IC50 in test [2] was 25.1 to 158 nM.

With `Cc1cccc(-c2[nH]cnc2-c2ccc3ncc(NC(=O)C4CC(N)C4)cc3c2)n1` (stereo not shown) [Compound 3, 3-amino-N-[6-[5-(6-methyl-2-pyridyl)-1H-imidazol-4-yl]-3-quinolyl]cyclobutanecarboxamide], in test [1], the Ki is 0.0398 to 0.316 nM. In addition, in test [2], the IC50 is 200 to 1260 nM.

In the case of `Cc1cccc(-c2[nH]cnc2-c2ccc3ncc(-c4csc(C(=O)O[C@H]5CC[C@@](C)(N)CC5)c4)cc3c2)n1` [Compound 1232, (4-amino-4-methyl-cyclohexyl) 4-[6-[5-(6-methyl-2-pyridyl)-1H-imidazol-4-yl]-3-quinolyl]thiophene-2-carboxylate], the Ki in test [1] was less than 0.0316 nM. Moreover, in test [2], the IC50 was 25.1 to 158 nM.

As for `Cc1cccc(-c2[nH]cnc2-c2ccc3ncc(-c4ncc(C(=O)OC5CNC5)cn4)cc3c2)n1` [Compound 1063, azetidin-3-yl 2-[6-[5-(6-methyl-2-pyridyl)-1H-imidazol-4-yl]-3-quinolyl]pyrimidine-5-carboxylate], the Ki in test [1] was 0.0398 to 0.316 nM. Besides, the IC50 in test [2] was 25.1 to 158 nM.

For the compound `Cc1cccc(-c2[nH]cnc2-c2ccc3ncc(N4CCC(C(=O)OCC5CNC5)CC4)cc3c2)n1` [Compound 424, azetidin-3-ylmethyl 1-[6-[5-(6-methyl-2-pyridyl)-1H-imidazol-4-yl]-3-quinolyl]piperidine-4-carboxylate], in test [1], the Ki was 0.0398 to 0.316 nM. For the same compound, the IC50 in test [2] was 200 to 1260 nM.

As for `Cc1cccc(-c2[nH]cnc2-c2ccc3ncc(C4=CCC(NC(=O)CSC5CCOC5=O)CC4)cc3c2)n1` (stereo not shown) [Compound 98, N-(4-(6-(5-(6-methylpyridin-2-yl)-1H-imidazol-4-yl)quinolin-3-yl)cyclohex-3-en-1-yl)-2-((2-oxotetrahydrofuran-3-yl)thio)acetamide], the Ki in test [1] is 0.0398 to 0.316 nM. For the same compound, the IC50 in test [2] is 25.1 to 158 nM.

Turning to `Cc1cccc(-c2[nH]cnc2-c2ccc3ncc(-c4nccc(C(=O)OCC5CNC5)n4)cc3c2)n1` [Compound 1098, azetidin-3-ylmethyl 2-[6-[5-(6-methyl-2-pyridyl)-1H-imidazol-4-yl]-3-quinolyl]pyrimidine-4-carboxylate], in test [1], the Ki is 0.0398 to 0.316 nM. Moreover, in test [2], the IC50 was 200 to 1260 nM.

Turning to `Cc1cccc(-c2[nH]ncc2-c2ccc3nccc(C(=O)OC[C@H]4CCCN4)c3c2)n1` [Compound 1223, [(2R)-pyrrolidin-2-yl]methyl 6-[5-(6-methyl-2-pyridyl)-1H-pyrazol-4-yl]quinoline-4-carboxylate], the Ki in test [1] was 3.98 to 31.6 nM. Further, the IC50 in test [2] is 25.1 to 158 nM.

For the compound `Cc1cccc(-c2n[nH]cc2-c2ccc3ncc(-c4cnn5c4NCC5)cc3n2)n1` [Compound 570, 7-(2,3-dihydro-1H-imidazo[1,2-b]pyrazol-7-yl)-2-[3-(6-methyl-2-pyridyl)-1H-pyrazol-4-yl]-1,5-naphthyridine], the Ki in test [1] was less than 0.0316 nM. The IC50 in test [2] was less than 20 nM.

Regarding `Cc1cccc(-c2[nH]cnc2-c2ccc3ncc(NCCN4CCC5(CC4)CNC5)cc3c2)n1` [Compound 404, N-[2-(2,7-diazaspiro[3.5]nonan-7-yl)ethyl]-6-[5-(6-methyl-2-pyridyl)-1H-imidazol-4-yl]quinolin-3-amine], in test [1], the Ki is 0.0398 to 0.316 nM. Besides, the IC50 in test [2] was 200 to 1260 nM.

For the compound `Cc1cccc(-c2[nH]cnc2-c2ccc3ncc(-c4cccc(C(=O)OC5CCNCC5)n4)cc3c2)n1` [Compound 1062, 4-piperidyl 6-[6-[5-(6-methyl-2-pyridyl)-1H-imidazol-4-yl]-3-quinolyl]pyridine-2-carboxylate], the Ki in test [1] is 0.0398 to 0.316 nM. For the same compound, in test [2], the IC50 was 25.1 to 158 nM.

As to `Cc1cccc(-c2n[nH]cc2-c2ccc3ncc(-c4cn(-c5ccccn5)nn4)cc3n2)n1` [Compound 680, 2-[3-(6-methyl-2-pyridyl)-1H-pyrazol-4-yl]-7-[1-(2-pyridyl)triazol-4-yl]-1,5-naphthyridine], the Ki in test [1] is 0.398 to 3.16 nM. Moreover, the IC50 in test [2] was 200 to 1260 nM.

On to `Cc1nc(-c2n[nH]cc2-c2ccc3ncc(-c4cnn([C@@H]5CCC[C@@H]5N)c4)cc3n2)ccc1F` [Compound 569, (1S,2R)-2-[4-[6-[3-(5-fluoro-6-methyl-2-pyridyl)-1H-pyrazol-4-yl]-1,5-naphthyridin-3-yl]pyrazol-1-yl]cyclopentanamine], for which the Ki in test [1] was 0.0398 to 0.316 nM. For the same compound, the IC50 in test [2] was 25.1 to 158 nM.

In the case of `CNCCn1cc(-c2cnc3ccc(-c4c[nH]nc4-c4cccc(C)n4)nc3c2)nn1` [Compound 554, N-methyl-2-[4-[6-[3-(6-methyl-2-pyridyl)-1H-pyrazol-4-yl]-1,5-naphthyridin-3-yl]triazol-1-yl]ethanamine], the Ki in test [1] was less than 0.0316 nM. The IC50 in test [2] is 25.1 to 158 nM.

For `Cc1ccc(S(=O)(=O)NCC(=O)Nc2cnc3ccc(-c4c[nH]nc4-c4cccc(C)n4)nc3c2)cc1` [Compound 57, N-[6-[3-(6-methyl-2-pyridyl)-1H-pyrazol-4-yl]-1,5-naphthyridin-3-yl]-2-(p-tolylsulfonylamino)acetamide], the Ki in test [1] is 0.0398 to 0.316 nM. Further, the IC50 in test [2] is 25.1 to 158 nM.
